Test results reported in the supplement of paper PMC10883282.

How the values were obtained:
Assay in all cases: relative viability vs DMSO control (72 h) (fraction); higher = more viable cells
SW872 = system: SW872
Method in brief: (§1)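 A 5 µM positive control and 0.1% DMSO vehicle ran alongside sarcoma cell lines seeded in 384-well plates to reach 80–90% confluence. Serially diluted compound, 2.5 µl from source plates of 10 mM to 0.0002 mM, was added after 24 h, and the plates were held 72 h at 37 °C, 5% CO2. Relative viability was worked out from ATPLite readings as percent growth averaged over up to triplicate wells. The values were rescaled so that 1 is full and 0 is none.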

KHOS-240S = system: KHOS-240S
Method in brief: as §1

SK-LMS-1 = system: SK-LMS-1
Method in brief: as §1

SW1353 = system: SW1353
Method in brief: as §1

RD-ES = system: RD-ES
Method in brief: as §1

HT1080 = system: HT1080
Method in brief: as §1

RD = system: RD
Method in brief: as §1

SYO-1 = system: SYO-1
Method in brief: as §1

G401 = system: G401
Method in brief: as §1

HS729 = system: HS729
Method in brief: as §1

SW684 = system: SW684
Method in brief: as §1

KHOS-NP = system: KHOS-NP
Method in brief: as §1

COC(=O)[C@@]1(O)C[C@H]2O[C@]1(C)n1c3ccccc3c3c4c(c5c6ccccc6n2c5c31)C(=O)NC4 [K-252a]
Conditions | relative viability
G401, 0.00017 µM | 1.05
G401, 0.00051 µM | 1.06
G401, 0.00152 µM | 1.03
G401, 0.00457 µM | 1.031
G401, 0.01372 µM | 1.04
G401, 0.04115 µM | 0.977
G401, 0.1235 µM | 1
G401, 0.3704 µM | 0.893
G401, 1.111 µM | 0.0854
G401, 3.333 µM | 0.0149
G401, 10 µM | 0.00607
HS729, 0.00017 µM | 1.06
HS729, 0.00051 µM | 1.02
HS729, 0.00152 µM | 1
HS729, 0.00457 µM | 0.923
HS729, 0.01372 µM | 0.863
HS729, 0.04115 µM | 0.754
HS729, 0.1235 µM | 0.713
HS729, 0.3704 µM | 0.752
HS729, 1.111 µM | 0.588
HS729, 3.333 µM | 0.356
HS729, 10 µM | 0.0254
HT1080, 0.00017 µM | 1.09
HT1080, 0.00051 µM | 1.09
HT1080, 0.00152 µM | 1.09
HT1080, 0.00457 µM | 1.09
HT1080, 0.01372 µM | 1.16
HT1080, 0.04115 µM | 1.13
HT1080, 0.1235 µM | 1.05
HT1080, 0.3704 µM | 1.13
HT1080, 1.111 µM | 0.683
HT1080, 3.333 µM | 0.105
HT1080, 10 µM | 0.0141
KHOS-240S, 0.00017 µM | 1.06
KHOS-240S, 0.00051 µM | 1.05
KHOS-240S, 0.00152 µM | 1.08
KHOS-240S, 0.00457 µM | 1.06
KHOS-240S, 0.01372 µM | 1.05
KHOS-240S, 0.04115 µM | 0.998
KHOS-240S, 0.1235 µM | 0.815
KHOS-240S, 0.3704 µM | 0.553
KHOS-240S, 1.111 µM | 0.346
KHOS-240S, 3.333 µM | 0.258
KHOS-240S, 10 µM | 0.0419
KHOS-NP, 0.00017 µM | 1.09
KHOS-NP, 0.00051 µM | 1.101
KHOS-NP, 0.00152 µM | 1.1
KHOS-NP, 0.00457 µM | 1.08
KHOS-NP, 0.01372 µM | 1.1
KHOS-NP, 0.04115 µM | 1.071
KHOS-NP, 0.1235 µM | 0.961
KHOS-NP, 0.3704 µM | 0.927
KHOS-NP, 1.111 µM | 0.286
KHOS-NP, 3.333 µM | 0.154
KHOS-NP, 10 µM | 0.0717
RD, 0.00017 µM | 1.07
RD, 0.00051 µM | 1.08
RD, 0.00152 µM | 1.11
RD, 0.00457 µM | 1.12
RD, 0.01372 µM | 1.13
RD, 0.04115 µM | 1.13
RD, 0.1235 µM | 1.09
RD, 0.3704 µM | 1
RD, 1.111 µM | 0.507
RD, 3.333 µM | 0.278
RD, 10 µM | 0.0929
RD-ES, 0.00017 µM | 0.991
RD-ES, 0.00051 µM | 1.02
RD-ES, 0.00152 µM | 1.01
RD-ES, 0.00457 µM | 1.02
RD-ES, 0.01372 µM | 0.979
RD-ES, 0.04115 µM | 0.797
RD-ES, 0.1235 µM | 0.578
RD-ES, 0.3704 µM | 0.488
RD-ES, 1.111 µM | 0.175
RD-ES, 3.333 µM | 0.0819
RD-ES, 10 µM | 0.0303
SK-LMS-1, 0.00017 µM | 1.03
SK-LMS-1, 0.00051 µM | 1.01
SK-LMS-1, 0.00152 µM | 1.04
SK-LMS-1, 0.00457 µM | 1.044
SK-LMS-1, 0.01372 µM | 0.9
SK-LMS-1, 0.04115 µM | 0.719
SK-LMS-1, 0.1235 µM | 0.664
SK-LMS-1, 0.3704 µM | 0.619
SK-LMS-1, 1.111 µM | 0.339
SK-LMS-1, 3.333 µM | 0.212
SK-LMS-1, 10 µM | 0.0825
SW684, 0.00017 µM | 1.12
SW684, 0.00051 µM | 1.176
SW684, 0.00152 µM | 1.14
SW684, 0.00457 µM | 1.18
SW684, 0.01372 µM | 1.2
SW684, 0.04115 µM | 1.14
SW684, 0.1235 µM | 1.05
SW684, 0.3704 µM | 0.906
SW684, 1.111 µM | 0.512
SW684, 3.333 µM | 0.0655
SW684, 10 µM | 0.0141
SW872, 0.00017 µM | 1.09
SW872, 0.00051 µM | 1.06
SW872, 0.00152 µM | 1.1
SW872, 0.00457 µM | 1.05
SW872, 0.01372 µM | 0.985
SW872, 0.04115 µM | 0.843
SW872, 0.1235 µM | 0.759
SW872, 0.3704 µM | 0.589
SW872, 1.111 µM | 0.394
SW872, 3.333 µM | 0.0892
SW872, 10 µM | 0.0117
SW1353, 0.00017 µM | 1.037
SW1353, 0.00051 µM | 1.033
SW1353, 0.00152 µM | 1.03
SW1353, 0.00457 µM | 1
SW1353, 0.01372 µM | 0.964
SW1353, 0.04115 µM | 0.892
SW1353, 0.1235 µM | 0.814
SW1353, 0.3704 µM | 0.772
SW1353, 1.111 µM | 0.528
SW1353, 3.333 µM | 0.294
SW1353, 10 µM | 0.0167
SYO-1, 0.00017 µM | 1.03
SYO-1, 0.00051 µM | 0.983
SYO-1, 0.00152 µM | 0.982
SYO-1, 0.00457 µM | 0.9645
SYO-1, 0.01372 µM | 0.928
SYO-1, 0.04115 µM | 0.862
SYO-1, 0.1235 µM | 0.66
SYO-1, 0.3704 µM | 0.302
SYO-1, 1.111 µM | 0.137
SYO-1, 3.333 µM | 0.128
SYO-1, 10 µM | 0.13
